{"source": "PubChem BioAssay AID2060506", "about": "(Molecular Pharmacology Branch, DTP, NCI, 2025)", "tested_on": "598228-144-R-J1-PDC complex spheroid viability", "assay": "Anticancer human tumor 598228-144-R-J1-PDC patient-derived serous endometrial adenocarcinoma cell line growth inhibition [GQUAD]", "settings": "for IC50: curve of first compound; for viability, T/C: stronger effect = lower value", "in_short": "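Viability of tumor cells grown as complex spheroids with endothelial and stromal cells, exposed to drug combinations. Top concentration at or near clinical Cmax (else 10 microM), diluted in half-log increments.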", "key": {"[1]": {"settings": "second compound 0.0316 µM, first compound 0.0316 µM"}, "[2]": {"settings": "second compound 0.0316 µM, first compound 0.1 µM"}, "[3]": {"settings": "second compound 0.0316 µM, first compound 0.316 µM"}, "[4]": {"settings": "second compound 0.0316 µM, first compound 1 µM"}, "[5]": {"settings": "second compound 0.0316 µM, first compound 3.16 µM"}, "[6]": {"settings": "second compound 0.0316 µM, first compound 10 µM"}, "[7]": {"settings": "second compound 0.1 µM, first compound 0.0316 µM"}, "[8]": {"settings": "second compound 0.1 µM, first compound 0.1 µM"}, "[9]": {"settings": "second compound 0.1 µM, first compound 0.316 µM"}, "[10]": {"settings": "second compound 0.1 µM, first compound 1 µM"}, "[11]": {"settings": "second compound 0.1 µM, first compound 3.16 µM"}, "[12]": {"settings": "second compound 0.1 µM, first compound 10 µM"}, "[13]": {"settings": "second compound 0.316 µM, first compound 0.0316 µM"}, "[14]": {"settings": "second compound 0.316 µM, first compound 0.1 µM"}, "[15]": {"settings": "second compound 0.316 µM, first compound 0.316 µM"}, "[16]": {"settings": "second compound 0.316 µM, first compound 1 µM"}, "[17]": {"settings": "second compound 0.316 µM, first compound 3.16 µM"}, "[18]": {"settings": "second compound 0.316 µM, first compound 10 µM"}, "[19]": {"settings": "second compound 1 µM, first compound 0.0316 µM"}, "[20]": {"settings": "second compound 1 µM, first compound 0.1 µM"}, "[21]": {"settings": "second compound 1 µM, first compound 0.316 µM"}, "[22]": {"settings": "second compound 1 µM, first compound 1 µM"}, "[23]": {"settings": "second compound 1 µM, first compound 3.16 µM"}, "[24]": {"settings": "second compound 1 µM, first compound 10 µM"}, "[25]": {"settings": "second compound 3.16 µM, first compound 0.0316 µM"}, "[26]": {"settings": "second compound 3.16 µM, first compound 0.1 µM"}, "[27]": {"settings": "second compound 3.16 µM, first compound 0.316 µM"}, "[28]": {"settings": "second compound 3.16 µM, first compound 1 µM"}, "[29]": {"settings": "second compound 3.16 µM, first compound 3.16 µM"}, "[30]": {"settings": "second compound 3.16 µM, first compound 10 µM"}, "[31]": {"settings": "second compound 10 µM, first compound 0.0316 µM"}, "[32]": {"settings": "second compound 10 µM, first compound 0.1 µM"}, "[33]": {"settings": "second compound 10 µM, first compound 0.316 µM"}, "[34]": {"settings": "second compound 10 µM, first compound 1 µM"}, "[35]": {"settings": "second compound 10 µM, first compound 3.16 µM"}, "[36]": {"settings": "second compound 10 µM, first compound 10 µM"}}, "data": [{"compound": "O=C(NO)c1cnc(N2CCN(S(=O)(=O)c3ccc4ccccc4c3)CC2)nc1", "note": "+ CN(C)c1ccc(Nc2c3ccc(NC(=O)CCN4CCCC4)cc3nc3cc(NC(=O)CCN4CCCC4)ccc23)cc1;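 also: spheroids exposed to the agents for one week before reading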;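 as to viability, T/C: percent of vehicle DMSO control viability so 100% = untreated growth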", "values": [{"measurement": "IC50", "setting": "second compound 0.0316 µM", "result": 72.9, "unit": "nM"}, {"measurement": "IC50", "setting": "second compound 0.1 µM", "result": 104, "unit": "nM"}, {"measurement": "IC50", "setting": "second compound 0.316 µM", "result": 100, "unit": "nM"}, {"measurement": "IC50", "setting": "second compound 1 µM", "result": 125, "unit": "nM"}, {"measurement": "IC50", "setting": "second compound 3.16 µM", "result": 83.2, "unit": "nM"}, {"measurement": "IC50", "setting": "second compound 10 µM", "result": 52.6, "unit": "nM"}, {"measurement": "viability, T/C", "setting": "[1]", "result": 79.4, "unit": "%"}, {"measurement": "viability, T/C", "setting": "[2]", "result": 35.2, "unit": "%"}, {"measurement": "viability, T/C", "setting": "[3]", "result": 26.3, "unit": "%"}, {"measurement": "viability, T/C", "setting": "[4]", "result": 0.43, "unit": "%"}, {"measurement": "viability, T/C", "setting": "[5]", "result": 0.48, "unit": "%"}, {"measurement": "viability, T/C", "setting": "[6]", "result": 0.27, "unit": "%"}, {"measurement": "viability, T/C", "setting": "[7]", "result": 87.8, "unit": "%"}, {"measurement": "viability, T/C", "setting": "[8]", "result": 49.5, "unit": "%"}, {"measurement": "viability, T/C", "setting": "[9]", "result": 24, "unit": "%"}, {"measurement": "viability, T/C", "setting": "[10]", "result": 0.39, "unit": "%"}, {"measurement": "viability, T/C", "setting": "[11]", "result": 0.39, "unit": "%"}, {"measurement": "viability, T/C", "setting": "[12]", "result": 0.25, "unit": "%"}, {"measurement": "viability, T/C", "setting": "[13]", "result": 81.3, "unit": "%"}, {"measurement": "viability, T/C", "setting": "[14]", "result": 49.5, "unit": "%"}, {"measurement": "viability, T/C", "setting": "[15]", "result": 18.3, "unit": "%"}, {"measurement": "viability, T/C", "setting": "[16]", "result": 0.5, "unit": "%"}, {"measurement": "viability, T/C", "setting": "[17]", "result": 0.26, "unit": "%"}, {"measurement": "viability, T/C", "setting": "[18]", "result": 0.42, "unit": "%"}, {"measurement": "viability, T/C", "setting": "[19]", "result": 92.3, "unit": "%"}, {"measurement": "viability, T/C", "setting": "[20]", "result": 56.6, "unit": "%"}, {"measurement": "viability, T/C", "setting": "[21]", "result": 21.2, "unit": "%"}, {"measurement": "viability, T/C", "setting": "[22]", "result": 0.43, "unit": "%"}, {"measurement": "viability, T/C", "setting": "[23]", "result": 0.22, "unit": "%"}, {"measurement": "viability, T/C", "setting": "[24]", "result": 0.38, "unit": "%"}, {"measurement": "viability, T/C", "setting": "[25]", "result": 108, "unit": "%"}, {"measurement": "viability, T/C", "setting": "[26]", "result": 38.9, "unit": "%"}, {"measurement": "viability, T/C", "setting": "[27]", "result": 8.39, "unit": "%"}, {"measurement": "viability, T/C", "setting": "[28]", "result": 0.37, "unit": "%"}, {"measurement": "viability, T/C", "setting": "[29]", "result": 0.29, "unit": "%"}, {"measurement": "viability, T/C", "setting": "[30]", "result": 0.29, "unit": "%"}, {"measurement": "viability, T/C", "setting": "[31]", "result": 73.7, "unit": "%"}, {"measurement": "viability, T/C", "setting": "[32]", "result": 19.8, "unit": "%"}, {"measurement": "viability, T/C", "setting": "[33]", "result": 5.5, "unit": "%"}, {"measurement": "viability, T/C", "setting": "[34]", "result": 0.39, "unit": "%"}, {"measurement": "viability, T/C", "setting": "[35]", "result": 0.39, "unit": "%"}, {"measurement": "viability, T/C", "setting": "[36]", "result": 0.34, "unit": "%"}]}, {"compound": "CCCS(=O)(=O)Nc1ccc(F)c(C(=O)c2c[nH]c3ncc(-c4ccc(Cl)cc4)cc23)c1F", "note": "+ Cc1[nH]c2ccc(F)cc2c1-c1nc2c3cccnc3c3ncccc3c2[nH]1", "values": [{"measurement": "IC50", "setting": "second compound 0.0316 µM", "result": 8500, "unit": "nM"}, {"measurement": "IC50", "setting": "second compound 0.1 µM", "result": 8720, "unit": "nM"}, {"measurement": "IC50", "setting": "second compound 0.316 µM", "result": "> 10000", "unit": "nM"}, {"measurement": "IC50", "setting": "second compound 1 µM", "result": 9540, "unit": "nM"}, {"measurement": "IC50", "setting": "second compound 3.16 µM", "result": "< 31.6", "unit": "nM"}, {"measurement": "IC50", "setting": "second compound 10 µM", "result": 8200, "unit": "nM"}, {"measurement": "viability, T/C", "setting": "[1]", "result": 130, "unit": "%"}, {"measurement": "viability, T/C", "setting": "[2]", "result": 118, "unit": "%"}, {"measurement": "viability, T/C", "setting": "[3]", "result": 135, "unit": "%"}, {"measurement": "viability, T/C", "setting": "[4]", "result": 115, "unit": "%"}, {"measurement": "viability, T/C", "setting": "[5]", "result": 114, "unit": "%"}, {"measurement": "viability, T/C", "setting": "[6]", "result": 39.2, "unit": "%"}, {"measurement": "viability, T/C", "setting": "[7]", "result": 103, "unit": "%"}, {"measurement": "viability, T/C", "setting": "[8]", "result": 112, "unit": "%"}, {"measurement": "viability, T/C", "setting": "[9]", "result": 97.9, "unit": "%"}, {"measurement": "viability, T/C", "setting": "[10]", "result": 106, "unit": "%"}, {"measurement": "viability, T/C", "setting": "[11]", "result": 95.5, "unit": "%"}, {"measurement": "viability, T/C", "setting": "[12]", "result": 43.6, "unit": "%"}, {"measurement": "viability, T/C", "setting": "[13]", "result": 122, "unit": "%"}, {"measurement": "viability, T/C", "setting": "[14]", "result": 126, "unit": "%"}, {"measurement": "viability, T/C", "setting": "[15]", "result": 102, "unit": "%"}, {"measurement": "viability, T/C", "setting": "[16]", "result": 103, "unit": "%"}, {"measurement": "viability, T/C", "setting": "[17]", "result": 129, "unit": "%"}, {"measurement": "viability, T/C", "setting": "[18]", "result": 51.6, "unit": "%"}, {"measurement": "viability, T/C", "setting": "[19]", "result": 80.9, "unit": "%"}, {"measurement": "viability, T/C", "setting": "[20]", "result": 71.9, "unit": "%"}, {"measurement": "viability, T/C", "setting": "[21]", "result": 84.2, "unit": "%"}, {"measurement": "viability, T/C", "setting": "[22]", "result": 76, "unit": "%"}, {"measurement": "viability, T/C", "setting": "[23]", "result": 92.2, "unit": "%"}, {"measurement": "viability, T/C", "setting": "[24]", "result": 48.8, "unit": "%"}, {"measurement": "viability, T/C", "setting": "[25]", "result": 39.3, "unit": "%"}, {"measurement": "viability, T/C", "setting": "[26]", "result": 48.6, "unit": "%"}, {"measurement": "viability, T/C", "setting": "[27]", "result": 43.1, "unit": "%"}, {"measurement": "viability, T/C", "setting": "[28]", "result": 56.4, "unit": "%"}, {"measurement": "viability, T/C", "setting": "[29]", "result": 56.2, "unit": "%"}, {"measurement": "viability, T/C", "setting": "[30]", "result": 31.1, "unit": "%"}, {"measurement": "viability, T/C", "setting": "[31]", "result": 73.4, "unit": "%"}, {"measurement": "viability, T/C", "setting": "[32]", "result": 65.1, "unit": "%"}, {"measurement": "viability, T/C", "setting": "[33]", "result": 78.5, "unit": "%"}, {"measurement": "viability, T/C", "setting": "[34]", "result": 70.4, "unit": "%"}, {"measurement": "viability, T/C", "setting": "[35]", "result": 83.5, "unit": "%"}, {"measurement": "viability, T/C", "setting": "[36]", "result": 45.1, "unit": "%"}]}]}
